Measured values from patent US20210137883A1, “ANTI-NEOPLASTIC COMPOUNDS AND METHODS TARGETING QSOX1” (ARIZONA BOARD OF REGENTS ON BEHALF OF ARIZONA STATE …, priority 2015, published 2021).
“Also recorded” adds a separate entry of the source.

What was measured:
[1] = system: UOK117 renal cell carcinoma xenografts; assay: UOK117 renal cell carcinoma xenografts in nude mice; format: in vivo; conditions: oral lavage 20 mg/kg/day from day 7, compared to vehicle-treated and untreated mice, FIG. 14
Method: FIG. 14. […] Mice were inoculated with 1 million tumor cells in the hind flank. Treatment was started on day 7 by oral lavage at 20 mg/kg/day.

786-O cells = assay: Boyden chamber invasion through Matrigel, 786-O kidney cancer cells; format: cell-based; conditions: dose-dependent; FIG. 11
Excerpt: FIG. 11. Effect of Compound SBI-0143183 on Kidney cancer invasion through Matrigel (786-0).

myeloma cell lines = assay: MTT assay on myeloma cell lines; format: cell-based; conditions: 2-fold serial dilutions, at higher doses, FIG. 15
Method: FIG. 15. MTT assay results from exposure of myeloma cell lines to SBI-183. Assay conditions: 25,000 cells per well were plated in a 96-well flat-bottom plate. 2-fold serial dilutions of SBI-183 were added to each well. % cell viability was calculated using the following formula: cmpd+cells/vehicle+cells*100%.

[2] = system: MIAPaCa2 pancreatic tumor cells; assay: Boyden chamber invasion through Matrigel, MIAPaCa2; format: cell-based; conditions: FIG. 13
[3] = system: MCF-10A breast cancer cell lines containing mutant p53; assay: Boyden chamber invasion through Matrigel, MCF-10A p53 breast cell lines; format: cell-based; conditions: FIG. 13
Excerpt: FIG. 13. […] P530E is MCF-10A non-malignant breast cell line containing wild type (non-mutated) p53. R248W, R273C and Y220C are three different p53 mutants expressed in MCF-10A breast cells.

786-O = assay: Detection of laminin-α4 deposition with anti-LAMA4 antibody in kidney cancer cells; format: cell-based; conditions: 15 uM SBI-183; 786-O kidney cancer cells; FIG. 12
Method: FIG. 12. 786-O Detection of laminin-α4 using anti-LAMA4 antibody in kidney cancer cells after incubation with 15uM SBI-183. […] Secondary alone indicates the goat anti-mouse antibody that was used to detect binding of anti-LAMA4.

recombinant QSOX1 = biological target: T1, recombinant QSOX1 (Homo sapiens, UniProt O00391); assay: Fluorogenic HTS assay for QSOX1 inhibitors (H2O2 detection, RNAse A substrate); format: biochemical; conditions: library screen with recombinant QSOX1
T1 construct: made in house
T1 sequence (O00391 30-747): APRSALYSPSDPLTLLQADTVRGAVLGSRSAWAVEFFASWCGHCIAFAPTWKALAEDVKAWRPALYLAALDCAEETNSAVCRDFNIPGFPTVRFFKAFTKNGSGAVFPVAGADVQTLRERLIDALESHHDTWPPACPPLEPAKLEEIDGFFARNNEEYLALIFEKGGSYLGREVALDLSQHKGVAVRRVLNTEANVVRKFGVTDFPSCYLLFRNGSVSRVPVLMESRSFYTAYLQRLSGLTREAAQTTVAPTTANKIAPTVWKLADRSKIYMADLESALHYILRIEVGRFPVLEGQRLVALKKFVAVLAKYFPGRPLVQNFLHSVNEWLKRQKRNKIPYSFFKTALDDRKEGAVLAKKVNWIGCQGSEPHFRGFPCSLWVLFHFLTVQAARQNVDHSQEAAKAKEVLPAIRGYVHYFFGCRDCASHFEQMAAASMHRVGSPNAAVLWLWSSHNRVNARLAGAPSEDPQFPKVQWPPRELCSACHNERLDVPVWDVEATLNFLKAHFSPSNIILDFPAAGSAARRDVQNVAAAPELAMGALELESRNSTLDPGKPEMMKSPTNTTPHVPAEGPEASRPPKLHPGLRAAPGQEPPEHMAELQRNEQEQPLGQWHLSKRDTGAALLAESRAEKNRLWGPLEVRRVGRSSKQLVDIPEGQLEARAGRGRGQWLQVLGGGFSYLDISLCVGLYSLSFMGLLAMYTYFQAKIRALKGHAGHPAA
Method: FIG. 7. An in vitro assay to screen for QSOX1 inhibitors; Fluorogenic assay (also can be HTS). Enzymatically active recombinant QSOX1 is incubated with individual compounds in individual wells of a 384 well plate. […] Therefore, no fluorescence is observed.
In screening for inhibitors, recombinant QSOX1 was produced and tested in fluorogenic assays to make sure it was active. The recombinant enzyme then was sent to the Sanford Burnham Institute for use in the same/similar assay to screen libraries for chemical compounds that inhibit the enzymatic activity of QSOX1.
A peptide was identified in plasma from pancreatic cancer patients that mapped back to the QSOX1 parent protein (FIG. 1, prior art). […] A high throughput screening assay (HTS) was employed to screen a library of chemical compounds (50,000 compounds). The assay detects H2O2 produced by QSOX1 when it is enzymatically active (FIG. 7). Inhibition of the enzymatic activity of QSOX1 (with a chemical compound) suppresses H2O2 production, decreasing fluorescent or bioluminescent signal in the assay.

- inhibition of the enzymatic activity of QSOX1 (recombinant QSOX1): inhibitor
SMILES: COc1cccc(C(=O)Nc2ccc(N3CCCC3)cc2)c1 [SBI-183, 3-methoxy-N-[4-(1-pyrrolidinyl)phenyl]benzamide]
- growth of UOK117 renal cell carcinoma xenografts [1]: suppresses the growth
- invasion of 786-O cells through Matrigel (786-O cells): suppressed invasion
- cell viability (MTT) (myeloma cell lines): decreased viability
- invasion through Matrigel of MIAPaCa2 pancreatic tumor cells [2]: suppresses invasion
- invasion through Matrigel of MCF-10A breast cell lines (p53 overexpress and mutant p53 R248W, R273C, Y220C) [3]: suppresses invasion
- deposition of laminin-α4 into the extracellular matrix (786-O): not deposited; also recorded: inhibits deposition
